Measurements as given in ChEMBL document CHEMBL5678810.

Experiments:
[1] = molecular target: Serine/threonine-protein kinase PLK1 (Homo sapiens) (UniProt P53350); assay: Inhibition of T7 bacteriophage fused human PLK1 at 10 uM by KINOMEscan analysis relative to control
[2] = molecular target: Serine/threonine-protein kinase Nek1 (Homo sapiens) (UniProt Q96PY6); assay: Inhibition of T7 bacteriophage fused human NEK1 at 10 uM by KINOMEscan analysis relative to control; values are per cent of control
[3] = molecular target: Dual specificity tyrosine-phosphorylation-regulated kinase 1A (Homo sapiens) (UniProt Q13627); assay: Inhibition of T7 bacteriophage fused human DYRK1A at 10 uM by KINOMEscan analysis relative to control; values are per cent of control
[4] = system: Tyrosine-protein kinase ABL1 (Homo sapiens), P00519 [Y253F]; assay: Inhibition of T7 bacteriophage fused human phosphorylated ABL1 Y253F mutant at 10 uM by KINOMEscan analysis relative to control
[5] = molecular target: Casein kinase I isoform alpha-like (Homo sapiens) (UniProt Q8N752); assay: Inhibition of T7 bacteriophage fused human CSNK1A1L at 10 uM by KINOMEscan analysis relative to control
Chain of Casein kinase I isoform alpha-like (Homo sapiens) (Q8N752 whole entry, the tested form may be a part, canonical isoform): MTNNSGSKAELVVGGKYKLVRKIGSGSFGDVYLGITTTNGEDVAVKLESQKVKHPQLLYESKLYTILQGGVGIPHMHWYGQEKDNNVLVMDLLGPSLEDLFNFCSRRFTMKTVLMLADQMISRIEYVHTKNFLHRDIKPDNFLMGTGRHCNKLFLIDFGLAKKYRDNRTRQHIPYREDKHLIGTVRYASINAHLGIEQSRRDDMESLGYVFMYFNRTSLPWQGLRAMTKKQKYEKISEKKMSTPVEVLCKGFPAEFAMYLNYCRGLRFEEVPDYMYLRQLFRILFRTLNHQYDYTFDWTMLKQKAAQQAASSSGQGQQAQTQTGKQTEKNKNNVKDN

[6] = molecular target: Protein kinase C epsilon type (Homo sapiens) (UniProt Q02156); assay: Inhibition of T7 bacteriophage fused human PRKCE at 10 uM by KINOMEscan analysis relative to control
[7] = molecular target: Serine/threonine-protein kinase Nek4 (Homo sapiens) (UniProt P51957); assay: Inhibition of T7 bacteriophage fused human NEK4 at 10 uM by KINOMEscan analysis relative to control; values are per cent of control
Chain of Serine/threonine-protein kinase Nek4 (Homo sapiens) (P51957 whole entry, looked up, the tested form may be a part): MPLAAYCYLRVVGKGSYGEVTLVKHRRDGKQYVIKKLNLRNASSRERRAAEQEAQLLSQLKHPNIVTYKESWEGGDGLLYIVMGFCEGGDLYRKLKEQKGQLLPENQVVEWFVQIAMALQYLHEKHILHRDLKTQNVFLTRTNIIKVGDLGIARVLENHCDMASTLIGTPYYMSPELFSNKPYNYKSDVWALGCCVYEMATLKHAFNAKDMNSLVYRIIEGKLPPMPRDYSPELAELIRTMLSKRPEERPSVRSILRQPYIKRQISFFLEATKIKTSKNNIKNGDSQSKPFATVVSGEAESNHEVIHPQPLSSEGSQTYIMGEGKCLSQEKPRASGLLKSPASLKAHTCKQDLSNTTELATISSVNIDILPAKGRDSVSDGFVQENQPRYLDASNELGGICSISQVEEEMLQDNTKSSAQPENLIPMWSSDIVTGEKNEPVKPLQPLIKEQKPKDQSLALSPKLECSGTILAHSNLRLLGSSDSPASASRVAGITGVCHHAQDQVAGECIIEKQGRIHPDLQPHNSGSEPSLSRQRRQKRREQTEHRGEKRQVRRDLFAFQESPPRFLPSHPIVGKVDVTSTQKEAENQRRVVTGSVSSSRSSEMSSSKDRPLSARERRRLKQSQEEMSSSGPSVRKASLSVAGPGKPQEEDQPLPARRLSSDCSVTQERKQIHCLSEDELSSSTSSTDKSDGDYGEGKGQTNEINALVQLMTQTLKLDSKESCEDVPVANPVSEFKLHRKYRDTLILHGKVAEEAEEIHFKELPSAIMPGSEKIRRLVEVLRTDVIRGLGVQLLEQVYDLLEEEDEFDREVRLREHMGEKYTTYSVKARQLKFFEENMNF

[8] = molecular target: Tyrosine-protein kinase Mer (Homo sapiens) (UniProt Q12866); assay: Inhibition of T7 bacteriophage fused human MERTK at 10 uM by KINOMEscan analysis relative to control
[9] = molecular target: Phosphatidylinositol 4-phosphate 3-kinase C2 domain-containing subunit beta (Homo sapiens) (UniProt O00750); assay: Inhibition of T7 bacteriophage fused human PIK3C2B at 10 uM by KINOMEscan analysis relative to control
[10] = molecular target: cAMP-dependent protein kinase catalytic subunit beta (Homo sapiens) (UniProt P22694); assay: Inhibition of T7 bacteriophage fused human PKAC-beta at 10 uM by KINOMEscan analysis relative to control
[11] = system: Serine/threonine-protein kinase B-raf (Homo sapiens), P15056 [V600E]; assay: Inhibition of T7 bacteriophage fused human BRAF V600E mutant at 10 uM by KINOMEscan analysis relative to control
Chain of Serine/threonine-protein kinase B-raf (Homo sapiens), P15056 [V600E] (P15056 whole entry V600E, the tested form may be a part): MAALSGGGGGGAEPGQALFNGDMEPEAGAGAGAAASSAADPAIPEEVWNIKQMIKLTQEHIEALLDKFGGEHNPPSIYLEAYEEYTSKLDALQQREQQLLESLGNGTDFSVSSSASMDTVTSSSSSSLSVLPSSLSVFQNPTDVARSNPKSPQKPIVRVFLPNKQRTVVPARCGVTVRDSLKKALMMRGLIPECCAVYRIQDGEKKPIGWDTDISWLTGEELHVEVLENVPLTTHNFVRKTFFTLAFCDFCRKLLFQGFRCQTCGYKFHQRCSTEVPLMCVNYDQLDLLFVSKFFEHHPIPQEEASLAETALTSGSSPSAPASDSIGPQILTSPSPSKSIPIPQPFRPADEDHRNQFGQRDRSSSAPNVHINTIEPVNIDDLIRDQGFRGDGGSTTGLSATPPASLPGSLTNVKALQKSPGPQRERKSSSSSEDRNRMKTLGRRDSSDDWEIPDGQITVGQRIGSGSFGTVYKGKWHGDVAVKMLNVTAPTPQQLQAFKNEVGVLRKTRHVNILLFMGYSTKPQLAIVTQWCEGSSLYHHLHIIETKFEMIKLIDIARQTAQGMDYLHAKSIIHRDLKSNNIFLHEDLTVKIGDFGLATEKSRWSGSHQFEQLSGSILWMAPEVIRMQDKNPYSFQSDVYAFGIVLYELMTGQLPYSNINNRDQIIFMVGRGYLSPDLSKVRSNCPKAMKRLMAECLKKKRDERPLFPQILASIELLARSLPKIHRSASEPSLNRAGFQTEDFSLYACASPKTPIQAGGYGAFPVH

[12] = molecular target: Fibroblast growth factor receptor 2 (Homo sapiens) (UniProt P21802); assay: Inhibition of T7 bacteriophage fused human FGFR2 at 10 uM by KINOMEscan analysis relative to control; values are per cent of control
[13] = molecular target: Ankyrin repeat and protein kinase domain-containing protein 1 (Homo sapiens) (UniProt Q8NFD2); assay: Inhibition of T7 bacteriophage fused human ANKK1 at 10 uM by KINOMEscan analysis relative to control
[14] = system: Mast/stem cell growth factor receptor Kit (Homo sapiens), P10721 [D816V]; assay: Inhibition of T7 bacteriophage fused human KIT D816V mutant at 10 uM by KINOMEscan analysis relative to control
Chain of Mast/stem cell growth factor receptor Kit (Homo sapiens), P10721 [D816V] (P10721 whole entry D816V, the tested form may be a part): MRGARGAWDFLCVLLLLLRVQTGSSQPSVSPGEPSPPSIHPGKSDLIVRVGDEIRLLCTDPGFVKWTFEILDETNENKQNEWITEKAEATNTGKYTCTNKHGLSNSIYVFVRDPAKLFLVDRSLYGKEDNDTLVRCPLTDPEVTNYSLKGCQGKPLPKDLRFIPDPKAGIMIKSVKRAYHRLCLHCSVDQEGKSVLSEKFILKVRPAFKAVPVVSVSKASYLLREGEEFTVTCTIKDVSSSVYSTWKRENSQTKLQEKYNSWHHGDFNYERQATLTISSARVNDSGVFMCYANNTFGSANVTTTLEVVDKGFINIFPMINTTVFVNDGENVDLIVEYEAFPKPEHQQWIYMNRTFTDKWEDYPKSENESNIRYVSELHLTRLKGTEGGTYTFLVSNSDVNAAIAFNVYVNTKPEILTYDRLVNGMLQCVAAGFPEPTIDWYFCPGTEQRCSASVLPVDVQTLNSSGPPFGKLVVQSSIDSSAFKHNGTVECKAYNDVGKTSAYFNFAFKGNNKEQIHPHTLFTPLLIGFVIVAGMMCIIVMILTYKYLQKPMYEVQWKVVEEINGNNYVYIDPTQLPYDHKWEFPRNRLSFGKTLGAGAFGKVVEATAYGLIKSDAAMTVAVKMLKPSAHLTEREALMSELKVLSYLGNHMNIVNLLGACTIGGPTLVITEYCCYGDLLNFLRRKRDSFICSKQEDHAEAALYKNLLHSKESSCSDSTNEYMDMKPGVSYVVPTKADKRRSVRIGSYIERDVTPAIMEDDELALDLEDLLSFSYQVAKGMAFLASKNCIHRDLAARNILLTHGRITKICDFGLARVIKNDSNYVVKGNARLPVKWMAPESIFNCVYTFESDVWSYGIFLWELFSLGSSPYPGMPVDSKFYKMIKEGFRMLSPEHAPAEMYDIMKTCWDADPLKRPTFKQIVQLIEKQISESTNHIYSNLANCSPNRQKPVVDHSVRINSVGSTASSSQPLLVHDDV

[15] = molecular target: G protein-coupled receptor kinase 4 (Homo sapiens) (UniProt P32298); assay: Inhibition of T7 bacteriophage fused human GRK4 at 10 uM by KINOMEscan analysis relative to control; values are per cent of control
[16] = molecular target: Mitogen-activated protein kinase kinase kinase 11 (Homo sapiens) (UniProt Q16584); assay: Inhibition of T7 bacteriophage fused human MLK3 at 10 uM by KINOMEscan analysis relative to control
[17] = molecular target: Ribosomal protein S6 kinase alpha-2 (Homo sapiens) (UniProt Q15349); assay: Inhibition of T7 bacteriophage fused human C-terminal RSK3 Kinase domain-2 at 10 uM by KINOMEscan analysis relative to control
[18] = molecular target: Casein kinase I isoform gamma-3 (Homo sapiens) (UniProt Q9Y6M4); assay: Inhibition of T7 bacteriophage fused human CSNK1G3 at 10 uM by KINOMEscan analysis relative to control; values are per cent of control
Chain of Casein kinase I isoform gamma-3 (Homo sapiens) (Q9Y6M4 whole entry, looked up, the tested form may be a part, canonical isoform): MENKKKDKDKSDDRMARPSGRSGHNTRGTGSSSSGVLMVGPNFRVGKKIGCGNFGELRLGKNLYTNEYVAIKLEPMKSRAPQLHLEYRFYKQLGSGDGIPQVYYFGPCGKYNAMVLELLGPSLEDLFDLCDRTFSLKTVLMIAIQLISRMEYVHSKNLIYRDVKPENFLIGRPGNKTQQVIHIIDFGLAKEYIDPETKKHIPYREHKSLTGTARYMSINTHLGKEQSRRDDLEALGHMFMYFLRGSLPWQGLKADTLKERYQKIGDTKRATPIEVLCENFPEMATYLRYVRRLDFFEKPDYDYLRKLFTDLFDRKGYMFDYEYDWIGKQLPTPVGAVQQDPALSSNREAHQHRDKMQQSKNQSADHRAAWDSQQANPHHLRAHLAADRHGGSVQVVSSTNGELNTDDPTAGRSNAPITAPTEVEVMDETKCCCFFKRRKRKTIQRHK

[19] = molecular target: Mitogen-activated protein kinase 7 (Homo sapiens, UniProt Q13164); assay: Inhibition of T7 bacteriophage fused human ERK5 at 10 uM by KINOMEscan analysis relative to control; values are per cent of control
[20] = molecular target: Serine/threonine-protein kinase Chk2 (Homo sapiens) (UniProt O96017); assay: Inhibition of CHK2 Lys2 labeling site in human PC-3 cell lysate at 10 uM by KiNativ profiling analysis relative to control; format: subcellular
Chain of Serine/threonine-protein kinase Chk2 (Homo sapiens) (O96017 whole entry): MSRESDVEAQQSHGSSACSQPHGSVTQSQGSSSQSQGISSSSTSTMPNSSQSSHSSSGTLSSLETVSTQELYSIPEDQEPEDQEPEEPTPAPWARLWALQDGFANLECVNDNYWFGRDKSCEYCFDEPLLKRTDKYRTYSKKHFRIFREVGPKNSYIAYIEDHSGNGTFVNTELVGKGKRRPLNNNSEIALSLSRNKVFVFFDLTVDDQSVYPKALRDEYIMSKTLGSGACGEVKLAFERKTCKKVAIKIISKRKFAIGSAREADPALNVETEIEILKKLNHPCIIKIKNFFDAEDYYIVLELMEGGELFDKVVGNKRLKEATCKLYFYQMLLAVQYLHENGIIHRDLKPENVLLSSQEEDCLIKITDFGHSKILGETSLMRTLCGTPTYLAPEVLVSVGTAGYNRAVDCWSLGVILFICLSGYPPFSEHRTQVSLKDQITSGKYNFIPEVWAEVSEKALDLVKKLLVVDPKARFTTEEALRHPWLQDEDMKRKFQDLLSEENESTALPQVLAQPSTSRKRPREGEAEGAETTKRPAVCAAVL

Chain of Serine/threonine-protein kinase PLK1 (Homo sapiens) (P53350 whole entry, the tested form may be a part): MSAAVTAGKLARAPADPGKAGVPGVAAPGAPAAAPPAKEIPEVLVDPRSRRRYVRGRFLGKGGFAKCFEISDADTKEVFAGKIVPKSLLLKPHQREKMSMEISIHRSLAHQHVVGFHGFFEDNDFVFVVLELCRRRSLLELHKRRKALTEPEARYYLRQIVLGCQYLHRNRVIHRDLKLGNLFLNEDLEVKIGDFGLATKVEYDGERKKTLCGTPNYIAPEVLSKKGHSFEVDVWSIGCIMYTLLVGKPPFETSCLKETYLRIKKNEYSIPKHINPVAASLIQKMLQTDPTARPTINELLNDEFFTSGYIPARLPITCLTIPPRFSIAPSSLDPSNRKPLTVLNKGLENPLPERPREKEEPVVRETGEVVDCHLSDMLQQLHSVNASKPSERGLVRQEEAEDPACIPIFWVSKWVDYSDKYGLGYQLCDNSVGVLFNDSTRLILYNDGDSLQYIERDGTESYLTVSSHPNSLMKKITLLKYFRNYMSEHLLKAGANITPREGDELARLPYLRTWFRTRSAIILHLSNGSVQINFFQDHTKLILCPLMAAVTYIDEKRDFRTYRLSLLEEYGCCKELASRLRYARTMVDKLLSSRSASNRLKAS

| Compound | inhibition [1] | residual activity [2] | residual activity [3] | inhibition [4] | inhibition [5] | inhibition [6] | residual activity [7] | inhibition [8] | inhibition [9] | inhibition [10] | inhibition [11] | residual activity [12] | inhibition [13] | inhibition [14] | residual activity [15] | inhibition [16] | inhibition [17] | residual activity [18] | residual activity [19] | inhibition [20] |
| --- | --- | --- | --- | --- | --- | --- | --- | --- | --- | --- | --- | --- | --- | --- | --- | --- | --- | --- | --- | --- |
| COc1cc(N2CCC(N3CCN(C)CC3)CC2)ccc1Nc1ncc2c(n1)N(C)c1ccccc1C(=O)N2C | 0.7% | 83% | 99% | 89% | 100% | 100% | 95% | 100% | 100% | 100% | 100% | 95% | 100% | 72% | 86% | 100% | 7.5% | 93% | 0.05% | – |
| COc1cc(C(=O)N2CCC(N3CCN(C)CC3)CC2)ccc1Nc1ncc2c(n1)N(C1CCCC1)c1ccccc1C(=O)N2C | – | – | – | – | – | – | – | – | – | – | – | – | – | – | – | – | – | – | – | 0% |
